Measurements taken from patent US20160102052A1, “Use of Cysteamine in Treating Infections caused by Yeasts/Moulds” (priority 2014, published 2016).

System: Exophiala dermatitidis CA01
Assay: Broth microdilution chequerboard analysis of Lynovex (NM001) in combination with clinical antifungals
Format: cell-based
Conditions: for Antifungal MIC100 / Antifungal MIC50: antifungal in isolation; for Antifungal MIC100 / Antifungal MIC100 in Combination: 72 h; for Antifungal MIC100 / Antifungal MIC50 / Antifungal MIC100 in Combination / Antifungal MIC50 in Combination: 35° C.; for FICI: antifungal with Lynovex (NM001), <0.5 Synergy, 0.5-1 Additive, >1 Indifference; for Antifungal MIC100 in Combination / Antifungal MIC50 in Combination: in combination with Lynovex (NM001)
Protocol: The aim of the experiment was to determine the effect of Lynovex (NM001) on the antifungal drug susceptibility of Exophiala dermatitidis CA01. Microtitre plates were prepared following CLSI recommendations for broth microdilution chequerboard method. These plates contained a serial doubling dilution of Lynovex (NM001) combined with serial doubling dilutions of antifungals drugs; Fluconazole, Itraconazole, Caspofungin and Amphotericin B. […] These were incubated at 35° C. and read at 72 h, 96 h, 120 h and 144 h on the BioTek plate reader. […] Three independent E. dermatitidis CA01 cultures were grown on PDA slope for 6 days at 35° C. • 7. Cultures were removed from incubator. 2 ml sterile 0.15M NaCl added to the overnight culture and cells harvested from the surface of the agar. Cells placed in fresh bijou tube. • 8. The cultures were allowed to rest for up to 10 minutes, allowing any hyphae to settle to the bottom. The top layer of conidia was removed into fresh bijou. Hyphae were discarded. • 9. […] This is continued to F12 where 100 μl is removed and discarded. • f. This dilution series was repeated in rows G-H for the remaining 2 cultures • g. Plate read at OD530 on BioTek • h. […] This preparation step occurs in two parts. First, Lynovex (NM001) and antifungals are serially diluted, down and across microtitre plates, respectively. Equal volumes of Lynovex and antifungal are then combined in a fresh microtitre plate, prior to inoculation. […] Stock solutions of Lynovex and antifungals were prepared at 4× desired concentrations. The plate layout at the end of this protocol is the final concentration in the plate following the combination of Lynovex and antifungals and the addition of the inocula. […] All other wells contain 150 μl sterile dH2O. • 9. Serial doubling dilutions are carried out from A to B whereby 150 μl is removed from A and placed into B and mixed well. Then take 150 μl B and place in C and mix well. This is repeated down to row G where the final 150 μl is discarded. […] The same procedure is repeated for the other 4 antifungals, carrying the dilutions across the plate i.e. […] At the final dilution in column 10, the final 150 μl is discarded. […] Inoculating Plates with E. dermatitidis CA01 • 6. Add 100 μl (total volume 200 μl) of the prepared E. dermatitidis CA01 culture to the all wells on the plate except wells H12. […] H12 will contain 100 μl water and 100 μl 2×RPMI-1640 alone, constituting an uninoculated control. • 8. The plate is read in the BioTek at OD530. • 9. Plates are then placed in a plastic box containing a Petri dish of water, sealed and incubated at 35° C. The presence of the water in the dish or on the tissue provides and environment of relatively high humidity. • 10. OD530 is then read at 72 h, 96 h, 120 h and 144 h and raw data processed using Microsoft Excel. • 11. Fractional Inhibitory Concentration (FIC) Index values are generated using MIC100 for 72 h data and MIC50 for later time points using the following formula: […]

**Q.** Which “Antifungal MIC100” value (GEOMEAN) does the source give for `C[C@@H]1[C@H](O)[C@@H](C)/C=C/C=C/C=C/C=C/C=C/C=C/C=C/[C@H](O[C@@H]2O[C@H](C)[C@@H](O)[C@H](N)[C@@H]2O)C[C@@H]2O[C@](O)(C[C@@H](O)C[C@@H](O)[C@H](O)CC[C@@H](O)C[C@@H](O)CC(=O)O[C@H]1C)C[C@H](O)[C@H]2C(=O)O` [Amphotericin B] here?
**A.** Its value is 0.59 µg/mL.

**Q.** What about the “Antifungal MIC50” value (GEOMEAN, 96 h) of the same compound?
**A.** The value was 0.47 µg/mL.

**Q.** What about the “Antifungal MIC50” value (GEOMEAN, 120 h) of the same compound?
**A.** The value was 0.47 µg/mL.

**Q.** What about the “Antifungal MIC50” value (GEOMEAN, 144 h) of the same compound?
**A.** The value was 0.59 µg/mL.

**Q.** What about the FICI (GEOMEAN, MIC50, 96 h) of the same compound?
**A.** Its FICI is 0.63 (2).

**Q.** What about the FICI (GEOMEAN, MIC50, 120 h) of the same compound?
**A.** Its FICI is 0.58 (3).

**Q.** And the FICI (GEOMEAN, MIC50, 144 h)?
**A.** Its FICI is 0.75 (2).

**Q.** And the FICI (GEOMEAN, MIC100, 72 h)?
**A.** Its FICI is 0.53 (1).

**Q.** And the “Antifungal MIC100 in Combination” value (GEOMEAN)?
**A.** Its value is 0.23 µg/mL.

**Q.** What about the “Antifungal MIC50 in Combination” value (GEOMEAN, 96 h) of the same compound?
**A.** Its value is 0.17 µg/mL.

**Q.** And the “Antifungal MIC50 in Combination” value (GEOMEAN, 120 h)?
**A.** Its value is 0.19 µg/mL.

**Q.** What about the “Antifungal MIC50 in Combination” value (GEOMEAN, 144 h) of the same compound?
**A.** Its value is 0.23 µg/mL.

**Q.** And the “Antifungal MIC100” value (MEAN)?
**A.** Its value is 0.86 µg/mL.

**Q.** And the “Antifungal MIC50” value (MEAN, 96 h)?
**A.** Its value is 0.47 µg/mL.

**Q.** What about the “Antifungal MIC50” value (MEAN, 120 h) of the same compound?
**A.** Its value is 0.47 µg/mL.

**Q.** What about the “Antifungal MIC50” value (MEAN, 144 h) of the same compound?
**A.** The value was 0.63 µg/mL.

**Q.** What about the FICI (MEAN, MIC50, 96 h) of the same compound?
**A.** The FICI was 0.64 (2).

**Q.** What about the FICI (MEAN, MIC50, 120 h) of the same compound?
**A.** The FICI was 0.59 (3).

**Q.** And the FICI (MEAN, MIC50, 144 h)?
**A.** The FICI was 0.75 (2).

**Q.** And the FICI (MEAN, MIC100, 72 h)?
**A.** Its FICI is 0.53 (1).

**Q.** And the “Antifungal MIC100 in Combination” value (MEAN)?
**A.** The value was 0.23 µg/mL.

**Q.** And the “Antifungal MIC50 in Combination” value (MEAN, 96 h)?
**A.** Its value is 0.18 µg/mL.

**Q.** What about the “Antifungal MIC50 in Combination” value (MEAN, 120 h) of the same compound?
**A.** The value was 0.20 µg/mL.

**Q.** And the “Antifungal MIC50 in Combination” value (MEAN, 144 h)?
**A.** Its value is 0.23 µg/mL.

**Q.** What about the “Antifungal MIC100” value (Range) of the same compound?
**A.** Its value is 0.23 to 1.88 µg/mL.

**Q.** What about the “Antifungal MIC50” value (Range, 96 h) of the same compound?
**A.** The value was 0.47 µg/mL.

**Q.** What about the “Antifungal MIC50” value (Range, 120 h) of the same compound?
**A.** The value was 0.5 µg/mL.

**Q.** And the “Antifungal MIC50” value (Range, 144 h)?
**A.** Its value is 0.47 to 0.94 µg/mL.

**Q.** And the “Antifungal MIC100 in Combination” value (Range)?
**A.** The value was 0.23 µg/mL.

**Q.** And the “Antifungal MIC50 in Combination” value (Range, 96 h)?
**A.** Its value is 0.12 to 0.23 µg/mL.

**Q.** What about the “Antifungal MIC50 in Combination” value (Range, 120 h) of the same compound?
**A.** The value was 0.12 to 0.23 µg/mL.

**Q.** What about the “Antifungal MIC50 in Combination” value (Range, 144 h) of the same compound?
**A.** Its value is 0.23 µg/mL.
